Assay results as given in ChEMBL document CHEMBL3137667, “[Drug-induced liver injury; fourteenth updated edition of the bibliographic database of liver injuries and related drugs]” (Gastroenterol Clin Biol, 2004).

Legend:
[1] = Highest frequency of moderate liver toxicity observed during clinical trials, expressed as a percentage. [column '% BIOL' in source]; details: human
[2] = Highest frequency of acute liver toxicity observed during clinical trials, expressed as a percentage. [column '% AIGUE' in source]; details: human
[3] = Comments (NB not yet translated). [column 'COMMENTAIRES' in source]; details: human
[4] = Times to onset, minimal and maximal, observed in the indexed observations. [column 'DELAI' in source]; details: human
[5] = human, serum
[6] = human, serum; remark: listed apart in the source
[7] = human
[8] = human; remark: listed apart in the source
[9] = human; remark: listed apart in the source
[10] = human, serum, 4383 h
[11] = human; remark: listed apart in the source
[12] = human; remark: listed apart in the source
[13] = human; remark: listed apart in the source
[14] = human; remark: listed apart in the source
[15] = human; remark: listed apart in the source
[16] = human; remark: listed apart in the source
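For Hepatotoxicity (association with vascular disease) in this document: count of indexed literature references reporting vascular liver injury in humans, e.g. peliosis hepatitis, hepatic veno-occlusive disease or Budd-Chiari syndrome.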
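For Hepatotoxicity (benign tumour) in this document: value is a count of indexed literature references citing a benign tumour confirmed by histopathology.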
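For Hepatotoxicity (choleostasis) in this document: human cholestatic liver injury, shown by histopathology or by peak ALT or AST elevation over alkaline phosphatase ratio below 2, value counts indexed literature reports.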
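For Hepatotoxicity (chronic liver disease) in this document: chronic liver injury confirmed by histopathology or persistently raised serum aminotransferase activity beyond 6 months, value given as the count of indexed literature references.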
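For Hepatotoxicity (cirrhosis) in this document: value is a count of indexed literature references reporting cirrhosis confirmed by histopathology.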
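For Hepatotoxicity (cytolytic) in this document: human cytolytic liver injury, shown by histopathology or by a ratio above 5 of peak ALT or AST elevation to alkaline phosphatase elevation, value counts indexed references.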
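For Hepatotoxicity (granulomatous hepatitis) in this document: value is a count of indexed literature references reporting granulomatous liver disease confirmed by histopathology.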
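For Hepatotoxicity (malignant tumour) in this document: malignant tumour confirmed by histopathology, value gives the count of indexed literature references reporting it.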
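For Hepatotoxicity (severe hepatitis) in this document: human clinical data: severe hepatitis, meaning potentially life-threatening liver failure or clinically observed cases, the value counts how many indexed literature references report it.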
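For Hepatotoxicity (steatosis) in this document: steatosis confirmed by histopathology, value is the count of indexed references.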

Compound | Hepatotoxicity (moderate) [1] [%] | Hepatotoxicity (acute) [2] [%] | Hepatotoxicity (comment) [3] | Hepatotoxicity (time to onset) [4] | Hepatotoxicity (moderate) [5] | Hepatotoxicity (acute) [6] | Hepatotoxicity (cytolytic) [7] | Hepatotoxicity (choleostasis) [8] | Hepatotoxicity (severe hepatitis) [9] | Hepatotoxicity (chronic liver disease) [10] | Hepatotoxicity (cirrhosis) [11] | Hepatotoxicity (granulomatous hepatitis) [12] | Hepatotoxicity (association with vascular disease) [13] | Hepatotoxicity (steatosis) [14] | Hepatotoxicity (malignant tumour) [15] | Hepatotoxicity (benign tumour) [16] | other results
CS(=O)(=O)OCCCCOS(C)(=O)=O [BUSULFAN] | 100 | 6.7 | HNR(I/THIOGUANINE) MVO | 2 days - 6 years | 11 | 6 | 3 | 3 | 4 | 0 | 1 | 0 | 42 | 0 | 0 | 0 | –
ANISTREPLASE | 0 | 0 | HEMATOME_SOUS_CAPSULAIRE | 6 days | 0 | 1 | 1 | 0 | 0 | 0 | 0 | 0 | 0 | 0 | 0 | 0 | –
NCCCC(O)(P(=O)(O)O)P(=O)(O)O [ALENDRONIC ACID] | – | – | AC_ANTI-ML | 2 months - 6 months | 2 | 3 | – | – | – | 0 | 0 | – | 0 | 0 | 0 | 0 | Hepatotoxicity (moderate) ([1]; Liver): 1.6%; Hepatotoxicity (acute) ([2]; Liver): 0%; Hepatotoxicity (cytolytic) ([7]; Liver): 3; Hepatotoxicity (choleostasis) ([8]; Liver): 0; Hepatotoxicity (severe hepatitis) ([9]; Liver): 1; Hepatotoxicity (granulomatous hepatitis) ([12]; Liver): 0
O=C(c1ccc(OCCN2CCCCC2)cc1)c1c(-c2ccc(O)cc2)sc2cc(O)ccc12 [RALOXIFENE] | 16.7 | 0 | CHOLESTASE_PROLONGEE | 30 days | 1 | 1 | 0 | 1 | 0 | 0 | 0 | 0 | 0 | 0 | 0 | 0 | –
O=C(O)C1N=C(c2ccccc2)c2cc(Cl)ccc2NC1=O (stereo not given) [CLORAZEPIC ACID] | 0 | 0 | CHOLESTASE_PROLONGEE | 2 months - 3 months | 0 | 3 | 2 | 3 | 0 | 0 | 0 | 0 | 0 | 0 | 0 | 0 | –
CCOc1nc2cccc(C(=O)O)c2n1Cc1ccc(-c2ccccc2-c2nnn[nH]2)cc1 | 2.4 | 0 | DUCTOPENIE | 2 weeks - 5.5 months | 3 | 2 | 3 | 0 | 1 | 0 | 0 | 0 | 0 | 1 | 0 | 0 | –
Nc1c(CC(=O)O)cccc1C(=O)c1ccc(Br)cc1 [BROMFENAC] | 0 | 0 | AC_ANTI-N | 2 weeks - 8 months | 0 | 7 | 7 | 0 | 7 | 0 | 0 | 0 | 0 | 0 | 0 | 0 | –
N=C(N)c1ccc(/C=C/c2ccc(C(=N)N)cc2O)cc1 [HYDROXYSTILBAMIDINE] | 0 | 0 | #S.REYE | 1 month | 0 | 1 | 0 | 0 | 0 | 0 | 0 | 0 | 0 | 1 | 0 | 0 | –
C[C@]12CC[C@@H]3c4ccc(OS(=O)(=O)O)cc4CC[C@H]3[C@@H]1CCC2=O [ESTRONE SULFURIC ACID] | 22.9 | 0 | HNF | 3 months - 1 year | 5 | 1 | 0 | 1 | 0 | 0 | 0 | 0 | 0 | 0 | 0 | 1 | –
CC(=O)[C@H]1CC[C@H]2[C@@H]3CCC4=CC(=O)CC[C@]4(C)[C@H]3CC[C@]12C [PROGESTERONE] | 13.3 | 0 | HNF | 1 week - 40 weeks | 2 | 3 | 2 | 1 | 0 | 0 | 0 | 0 | 0 | 0 | 0 | 1 | –
